Assay results taken from PMC6803640, “Oligomeric state, hydrodynamic properties and target recognition of human Calcium and Integrin Binding protein 2 (CIB2)” (Scientific Reports, 2019).
Where a SMILES comes first, the peptide text is derived from it.

What was measured:
[1] = biological target: T1, human CIB2 (Homo sapiens, UniProt O75838); experiment: Cross-linking (DSBU)/MALDI-TOF-MS of CIB2 with α7B peptides; type: binding
T1 construct: made in house
T1 sequence (O75838 1-187): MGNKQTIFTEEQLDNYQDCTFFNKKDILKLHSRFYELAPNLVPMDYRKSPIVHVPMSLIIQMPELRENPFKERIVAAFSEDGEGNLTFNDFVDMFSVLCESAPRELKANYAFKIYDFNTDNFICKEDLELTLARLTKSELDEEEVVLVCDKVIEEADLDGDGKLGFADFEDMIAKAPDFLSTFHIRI
Procedure: CIB2 samples were cross-linked with DSBU in the presence of peptide α7B_M or α7B_Scrb as described in ref.[14] Briefly, 10 µM CIB2 was diluted in 20 mM HEPES, pH 7.5, 1 mM DTT, 1 mM Mg^2+ and 2 mM Ca^2+ and incubated with increasing peptide concentrations (5 µM, 10 µM, and 20 µM) for 10 min at room temperature. Then, 50-fold molar excess of DSBU was added and the reactions were conducted for 20 min at room temperature. As control, CIB2 was treated with DSBU without peptide. Reactions were blocked by adding ammonium bicarbonate to a final concentration of 20 mM.
Cross-linked CIB2 samples were desalted via ZipTip C4 tips (Millipore) before MALDI-TOF-MS analysis (Ultraflex III MALDI-TOF/TOF mass spectrometer, Bruker Daltonik, Bremen) was conducted using sinapinic acid as matrix. For further details see Supplementary Methods. Baseline subtraction and spectra smoothing were performed. […]
Cross-linking reactions and Mass Spectrometry
Cross-linking reactions were performed with 10 µM CIB2 (in 20 mM HEPES pH 7.5, 150 mM KCl, 1 mM DTT, 1 mM Mg2+, 2 mM Ca2+) and increasing concentrations of peptides α7B_M and α7B_Scrb, ranging from 0.5:1 to 2:1 peptide:protein ratios. After incubating the samples for 10 minutes at room temperature, DSBU (freshly prepared solution, dissolved in neat DMSO) was added to the mixture at 50-fold molar excess compared to CIB2 concentration. As the final volume of the reaction mixture was 50 µL, 1 µL of 25 mM DSBU was added to each sample. After 20 minutes, the cross-linking reactions were quenched by adding ammonium bicarbonate to a final concentration of 20 mM. Samples were incubated for 10 minutes before SDS-PAGE analysis was performed (data not shown). Samples for MALDI-TOF-MS measurements were desalted by ZipTip C4 (Millipore) and desalted protein was eluted with 70% (v/v) acetonitrile / 1% (v/v) formic acid. Each sample was mixed with a saturated solution of sinapinic acid (in 50% (v/v) methanol / 0.1% (v/v) TFA) at 1:1 ratio and spotted onto the MALDI target. […]

[2] = test system: CIB2; conditions: cited from earlier work
Description: In a recent study[8] we investigated the capability of CIB2 to bind Ca^2+ and Mg^2+ thereby switching to a functionally distinct structural state. By integrating several biochemical and biophysical techniques we could establish that in the absence of any cation CIB2 forms a molten globule state that essentially lacks tertiary structure. […] This is quite unusual for Ca^2+-sensor pro ... || The second approach (direct peptide immobilization) led to very low signals and unreproducible results and was not pursued any further. […] In spite of such differences, which might ... || Interaction with α7B occurs in the region proximal to the membrane and not close to the C-terminus of the cytosolic domain of the integrin. The recognition between CIB2 and the α7B target is kinetically favored in the presence of physiological Mg^2+ and in the absence of Ca^2+ and it might induce binding of another CIB2 molecule. […] However, CIB2 per se binds a single peptide as a monomer, and the complex could then induce CIB2 dimerization, ...

[3] = test system: CIB2; conditions: fused with GFP and tdTomato; cited from earlier work
Description: Our previous work with untagged purified CIB2 also concluded that CIB2 is dimeric. We now provide new lines of evidence that allow us to reconsider some of the previous findings in the light of MS ...

CSCC[C@H](NC(=O)[C@H](CCCCN)NC(=O)[C@H](Cc1c[nH]c2ccccc12)NC(=O)[C@H](CC(C)C)NC(=O)[C@H](CC(C)C)NC(=O)[C@H](CC(C)C)NC(C)=O)C(=O)NCC(=O)N[C@@H](Cc1ccccc1)C(=O)N[C@@H](Cc1ccccc1)C(=O)N[C@@H](CCCCN)C(=O)N[C@@H](CCCNC(=N)N)C(=O)N[C@@H](C)C(=O)N[C@@H](CCCCN)C(=O)N[C@@H](Cc1c[nH]cn1)C(=O)N1CCC[C@H]1C(=O)N[C@@H](CCC(=O)O)C(N)=O [α7B_M] (Ac-LLLWKMGFFKRAKHPE-NH2)
1:2 CIB2/peptide complex ([1]; 10 µM CIB2, 5, 10, 20 µM peptide, 50-fold DSBU, 1 mM Mg^2+, 2 mM Ca^2+): A weak signal | CIB2/peptide complex formation, 1:1 ([1]; 10 µM CIB2, 5, 10, 20 µM peptide, 50-fold DSBU, 20 mM HEPES pH 7.5, 1 mM Mg^2+, 2 mM Ca^2+, room temperature): a 1:1 CIB2/peptide complex appears in the mass spectra | 2:1 CIB2 and peptide complex ([1]; cross-linking experiments with DSBU, 1 mM Mg^2+, 2 mM Ca^2+): never observed | fluorescence titration of CIB2 ([2]; peptide intrinsic fluorescence): fluorescence variation upon titration with α7B_M was much higher

B1: CIB2: Recombinant human CIB2, Ca^2+ and Mg^2+-binding protein (protein)
chain: T1 sequence (O75838 1-187)
modifications: left off: His tag, end not stated, cleaved
dimer formation [3]: found to form dimers | oligomeric state by MS and XL-MS ([1]; all tested conditions, MS and XL-MS): remained monomeric in all tested conditions | CIB2:target peptide stoichiometry ([2]; fluorescence): 2:1 stoichiometry
